The target in this assay is T1, Ara h 8.0101 (Arachis hypogaea, UniProt Q6VT83).
T1 construct: recombinant, 15N-labelled; N-terminal glycine (initiator Met apparently absent)
T1 sequence (Q6VT83 2-157): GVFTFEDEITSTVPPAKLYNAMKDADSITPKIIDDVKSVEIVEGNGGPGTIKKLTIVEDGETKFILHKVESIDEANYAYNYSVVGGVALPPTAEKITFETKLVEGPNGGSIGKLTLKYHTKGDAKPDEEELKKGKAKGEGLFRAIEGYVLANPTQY
In words: 1H-15N HSQC NMR titration. It counts as binding.

SMILES strings stand for the structures.

As a reminder, the Kd is a measure of binding affinity in units of concentration. As for `Oc1cc(O)c2c(c1)O[C@H](c1ccc(O)c(O)c1)[C@H](O)C2` [(-)-epicatechin], the Kd came to 760 ± 370 µM.

The values above are taken from paper PMC9330593, “The Structural Flexibility of PR-10 Food Allergens” (International Journal of Molecular Sciences, 2022).
